The compounds below were run on S. Typhimurium GFP reporter counter-screen, fluorescence, 4 h (assay: S. Typhimurium nonspecific reporter signal inhibition – Salmonella Typhimurium, GFP fluorescence, counter-screen for PhoP regulon inhibitor project, dose response (AID 2401);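 further: S. typhimurium with Mg-insensitive nmpC-GFP reporter grown at 10 µM Mg2+; drop in reporter fluorescence reflects general culture growth inhibition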).

| SMILES | IC50 |
| --- | --- |
| CNC[C@H](Cc1ccccc1)NC[C@@H](Cc1cccc2ccccc12)NCCc1ccc(C)cc1 | 26.2 µM |
| O=C1C=C(N2CCOCC2)c2ccccc2C1=O | 55.5 µM |
| O=C1c2ccccc2NC(c2ccc(-c3ccc(Br)cc3)o2)N1O (stereo not drawn) | 38.7 µM |
| C=C1c2c(Cl)ccc(O)c2C(O)=C2C(=O)[C@]3(O)C(O)=C(C(N)=O)C(=O)[C@@H](N(C)C)[C@@H]3[C@@H](O)C12 (stereo partly drawn) | 1.28 µM |
| CCCCC(CC)CN=C(N)NC(N)=NCCCCCCN=C(N)NC(N)=NCC(CC)CCCC (stereo not drawn) | 5.51 µM |
| ON=C1/C(=N\O)CC2(C/C1=N/O)OCCO2 | 98.3 µM |
| Cc1conc1NC(c1cccs1)c1ccc2cccnc2c1O (stereo not drawn) | 25.1 µM |
| CN1CCN(CCCN2c3ccccc3Sc3ccc(Cl)cc32)CC1 | 51 µM |
| CC[C@H]1OC(=O)[C@H](C)[C@@H](O[C@H]2C[C@@](C)(OC)[C@@H](O)[C@H](C)O2)[C@H](C)[C@@H](O[C@@H]2O[C@H](C)C[C@H](N(C)C)[C@H]2O)[C@](C)(O)C[C@@H](C)[C@@H]2N[C@@H](COCCOC)O[C@H]([C@H]2C)[C@]1(C)O | 25.1 µM |
| CCn1c(N)[n+](CC(=O)Nc2ccc(SC(F)F)cc2)c2ccccc21 | 132 µM |
| Cc1cc(C(=O)N/N=C/c2ccc(O)c(O)c2O)c(C)n1-c1ccccc1 | 22.8 µM |
| COc1ccc(Nc2cc(C)nc(NCc3ccccc3)n2)cc1 | 111 µM |
| O=S1(=O)Nc2c(ccc3cccnc23)-c2ccccc21 | 2.73 µM |
| Nc1nc(N)c(Cc2ccc(Cl)cc2Cl)c(N)n1 | 100 µM |
| CCn1cc(C(=O)O)c(=O)c2cc3c(cc21)OCO3 | 80.6 µM |
| COc1nsnc1NS(=O)(=O)c1ccc(NC(=S)NC(=O)c2cccnc2)cc1 | 42.6 µM |
| Fc1ccc(Nc2nc(NCc3ccco3)c3ccccc3n2)cc1 | 28.2 µM |
| COc1c(N2CCN(C(=S)NC3CC4CCC3C4)C(C)C2)c(F)cc2c(=O)c(C(=O)O)cn(C3CC3)c12 (stereo not drawn) | 72.9 µM |
| CCCCCc1ccc(OCCC[n+]2ccccc2)c(CCCCC)c1 | 70.1 µM |
| Oc1c(CN2CCOCC2)cc(COCc2ccccc2)c2cccnc12 | 69.5 µM |
| O=S1(=O)N=C(N/N=C/c2ccccn2)c2ccccc21 | 19.3 µM |
| CCn1cc(C(=O)NCCN(C)C)c(=O)c2cc(F)c(N3CCN(C)CC3)cc21 | 89.8 µM |

| SMILES | IC50 |
| --- | --- |
| Cc1ccnc(NC(c2cccnc2)c2ccc3cccnc3c2O)c1 (stereo not drawn) | 22.3 µM |
| CN1CCN(c2c(F)cc3c(=O)c(C(=O)O)cn4c3c2OCN4C)CC1 | 0.61 µM |
| O=C(C[n+]1cccc(CNC(=O)c2ccc(OC(F)F)cc2)c1)Nc1ccc(SC(F)F)cc1 | 78.4 µM |
| CCCCOc1ccc(Br)cc1CSC(=N)N | 75.5 µM |
| CCC(C)(C)c1ccc(OCCCC[n+]2ccc(C)cc2)c(C(C)(C)CC)c1 | 48.4 µM |
| Oc1ccc(CN2CCN(Cc3ccccc3)CC2)c2cccnc12 | 35 µM |
| O=c1cc2oc3cc(O)c(O)cc3c(-c3ccccc3[N+](=O)[O-])c-2cc1O | 28.5 µM |
| Oc1cccc(/C=N/NC(=S)Nc2cccnc2)c1O | 28.5 µM |
| O=c1[nH][nH]c(-c2ccccc2O)c1C(C[N+](=O)[O-])c1ccc(Br)cc1 (stereo not drawn) | 51.7 µM |
| O=C(c1cccs1)c1no[n+]([O-])c1C(=O)c1cccs1 | 39.1 µM |
| CC(C)Oc1ccc(Cc2cnc(N)nc2N)cc1 | 34 µM |
| CCCCCNCC(=O)Nc1cccc(C(=O)Nc2cccc(C(F)(F)F)c2)c1 | 83.2 µM |
| COc1ccccc1CNCCc1ccc(F)cc1 | 35 µM |
| Nc1nnc(-c2cccc(Cl)c2Cl)c(N)n1 | 60.5 µM |
| O=C(N/N=C/c1c[nH]c2ccccc12)c1cc(-c2cccc3ccccc23)n[nH]1 | 85.3 µM |
| Fc1ccc(CCNCc2ccc(Cl)c(Cl)c2)cc1 | 80.6 µM |
| Cc1cc(C)c(NC(=O)c2cn3c4c(c(N5CCN(C)CC5)c(F)cc4c2=O)OCC3C)c(C)c1 (stereo not drawn) | 34.2 µM |
| Oc1c(CN2CCc3ccccc3C2)cc(Cl)c2cccnc12 | 17.4 µM |
| CCCCCOc1ccc(CSC(=N)N)cc1[N+](=O)[O-] | 46.8 µM |
| Clc1cc(Br)ccc1OCCCNCc1ccccc1 | 75.6 µM |
| CN(C)C1C(=O)C(C(N)=O)=C(O)C2(O)C(=O)C3=C(O)c4c(O)cccc4C(C)(O)C3C(O)C12 (stereo not drawn) | 0.58 µM |
